Assay results from US8680137B2, “Agents and methods for treating ischemic and other diseases” (Nono Inc., priority 2009, dated 2014).
Like-named read-outs stand apart in the source and are kept apart here.

Legend:
A375 melanoma = experiment: Cancer cell proliferation, A375; format: cell-based; settings: Homo sapiens
Experimental: To determine the breadth of efficacy in cancers, we examined the efficacy of a range of TRPM7 inhibitors for their ability to inhibit cell proliferation in cancer cell lines. Representative figures are included as examples.
Cells (Table 1) were grown to 70% confluency, trypsinized, counted, and seeded in 96-well flat-bottom plates at a final concentration of 2.5×10^3-5.0×10^3 cells/well in growth media containing 5% FBS (Day 0). Other well sizes and cell densities were used successfully as well. Cells were allowed to incubate in growth media for 24 hours to allow for maximum adhesion. Treatment with the test agent began on Day 1 and continued for 72 hours either with or without retreatment. At the 72 hour time point, viable cell numbers are quantified by the CellTiter-Glo® cell viability assay as described above, or using standard MTT, SRB or BrDU assays. Experiments were repeated at least twice with the same concentrations to determine growth inhibitory activity.
Data Collection—For the cell proliferation studies, data from each experiment was collected and expressed as % Cell Growth using the following calculation: % Cell Growth=(ftest/fvehicle)×100 Where ftest is the luminescent signal of the tested sample, and fvehicle is the luminescence of the vehicle in which the drug is dissolved (or appropriate measure for the other viability/proliferation measures). Dose response graphs and IC50 values were generated using standard software using the following variable slope equation: […]

B16F10 melanoma = experiment: Murine tumor model of B16F10 melanoma; format: in vivo, mouse; settings: intravenous 20 mg/kg once daily
Experimental: To evaluate the efficacy of TRPM7 inhibitors in vivo, M6 was selected to for a pilot evaluation of its ability to reduce tumor formation in a murine tumor model of B16F10 melanoma and a RXF-393 human renal cell carcinoma xenograft model of tumor proliferation. […] For each tumor model, an appropriate number of cells were injected into the right flank (˜3-5 million cells per animal in 0.1 ml 50% matrigel/50% media). When tumor sizes reached 100-150 mg, animals were randomized into control (vehicle only), positive control or M6. M6 was given by intravenous injection to 20 mg/kg once daily. Tumors were measured and the weights were calculated by standard means.

For `COc1cc2c(cc1OC)C(c1sc3ccccc3c1Cl)=NCC2` [Compound M6], which IC50 (A375 melanoma; A-375, 72 h, A375, Exp 1, 72 hours, read-out: IC50) is on record?
The IC50 was 12.6 µM.

What about the IC50 (A375 melanoma; A-375, 72 h, A375, Exp 2, 72 hours, read-out: IC50) of the same molecule?
Its IC50 is 14.2 µM.

What about the IC50 (A375 melanoma; A-375, A375, mean of Exp 1 and Exp 2, read-out: Mean IC50) of the same molecule?
The IC50 was 13.4 µM.

What about the melanoma tumor growth (B16F10 melanoma) of the same molecule?
The melanoma tumor growth was “reduces tumor growth”.
